According to paper PMC7073229, “Novel Quinoline Compounds Active in Cancer Cells through Coupled DNA Methyltransferase Inhibition and Degradation” (Cancers, 2020):
Where two headings read alike, the source gives them in different places.

Legend:
U937 AML cells [1] = conditions: MTT, 48 h, read-out: Antiproliferative Activity (IC50 ± SD) U937, cited from earlier work
HL60 APL cells [2] = conditions: MTT, 48 h, read-out: Antiproliferative Activity (IC50 ± SD) HL60, cited from earlier work
human DNMT1 (hDNMT1) = biological target: T1, human DNMT1 (hDNMT1) (Homo sapiens, UniProt P26358); experiment: DNMT1 assay ([methyl-3H]SAM, Flashplate); type: biochemical; conditions: mean of at least two independent experiments; read-out: Enzyme Inhibition (EC50 ± SD) hDNMT1
T1 construct: His; made in house
T1 sequence (P26358 whole entry): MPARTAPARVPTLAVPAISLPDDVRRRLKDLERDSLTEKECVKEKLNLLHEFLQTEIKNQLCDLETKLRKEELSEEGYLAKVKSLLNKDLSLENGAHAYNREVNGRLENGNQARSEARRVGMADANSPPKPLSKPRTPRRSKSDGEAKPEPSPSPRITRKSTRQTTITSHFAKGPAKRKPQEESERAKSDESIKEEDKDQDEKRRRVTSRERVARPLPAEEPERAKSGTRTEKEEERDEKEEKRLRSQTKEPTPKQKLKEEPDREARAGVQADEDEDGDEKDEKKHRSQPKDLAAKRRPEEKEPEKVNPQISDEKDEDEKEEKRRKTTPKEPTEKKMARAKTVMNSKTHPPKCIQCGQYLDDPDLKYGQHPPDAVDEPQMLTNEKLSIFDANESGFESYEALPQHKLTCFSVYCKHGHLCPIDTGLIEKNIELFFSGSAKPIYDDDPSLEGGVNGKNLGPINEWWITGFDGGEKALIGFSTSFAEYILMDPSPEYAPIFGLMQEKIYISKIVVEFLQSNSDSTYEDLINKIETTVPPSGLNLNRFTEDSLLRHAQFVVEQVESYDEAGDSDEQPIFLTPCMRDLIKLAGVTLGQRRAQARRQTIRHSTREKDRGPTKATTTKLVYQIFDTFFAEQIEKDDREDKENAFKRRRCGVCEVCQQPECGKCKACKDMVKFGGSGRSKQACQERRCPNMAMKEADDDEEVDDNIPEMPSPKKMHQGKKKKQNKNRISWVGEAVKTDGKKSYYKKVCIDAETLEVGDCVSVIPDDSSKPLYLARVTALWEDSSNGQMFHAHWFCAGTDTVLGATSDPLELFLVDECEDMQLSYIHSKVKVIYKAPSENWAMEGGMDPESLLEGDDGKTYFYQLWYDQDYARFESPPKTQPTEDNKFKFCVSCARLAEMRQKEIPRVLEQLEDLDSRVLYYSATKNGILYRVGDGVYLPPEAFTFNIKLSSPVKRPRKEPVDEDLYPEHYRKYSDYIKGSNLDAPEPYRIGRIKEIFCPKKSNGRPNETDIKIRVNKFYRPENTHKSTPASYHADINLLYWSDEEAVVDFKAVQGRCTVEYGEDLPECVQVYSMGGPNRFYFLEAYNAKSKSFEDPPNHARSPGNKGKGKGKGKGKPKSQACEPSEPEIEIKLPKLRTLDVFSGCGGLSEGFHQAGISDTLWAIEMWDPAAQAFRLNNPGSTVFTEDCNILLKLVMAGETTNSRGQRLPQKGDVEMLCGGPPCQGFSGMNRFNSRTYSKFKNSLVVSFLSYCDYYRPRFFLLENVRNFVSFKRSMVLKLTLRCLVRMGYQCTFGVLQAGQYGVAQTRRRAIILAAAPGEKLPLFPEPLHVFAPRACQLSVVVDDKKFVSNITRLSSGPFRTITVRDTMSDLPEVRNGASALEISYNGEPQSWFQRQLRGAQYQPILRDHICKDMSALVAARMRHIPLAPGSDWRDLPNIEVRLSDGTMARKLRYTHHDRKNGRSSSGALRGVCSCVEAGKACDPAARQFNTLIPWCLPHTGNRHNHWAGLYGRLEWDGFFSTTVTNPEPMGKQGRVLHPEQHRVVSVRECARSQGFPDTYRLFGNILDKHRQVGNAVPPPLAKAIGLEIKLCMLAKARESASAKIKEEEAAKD
Protocol: His-DNMT1 (182 kDa, human) was cloned, expressed, and purified as described by Lee et al.. The DNMT1 assay was performed according to Gros et al.. […] The reaction was incubated 2 h at 37 °C, then 8 µL of the solution are transferred into a streptavidin 96-well scintillant coated Flashplate containing 190 µL of 20 mM SAH in 50 mM Tris–HCl (pH 7.4). The Flashplate is agitated for 1 h at room temperature and washed. The plate is read with TopCount (PerkinElmer). In this assay, the negative and positive controls were defined as wells without enzyme and wells with only DMSO, respectively.

[3] = biological target: T2, C-terminal catalytic domain of human DNMT3A (hDNMT3A) (Homo sapiens, UniProt Q9Y6K1); experiment: DNMT3A restriction-based fluorescence assay; type: biochemical; conditions: mean of at least two independent experiments; read-out: Enzyme Inhibition (EC50 ± SD) hDNMT3A
T2 construct: the C-terminal catalytic domain of human DNMT3A (hDNMT3A)
T2 sequence (Q9Y6K1 634-912 limits assumed): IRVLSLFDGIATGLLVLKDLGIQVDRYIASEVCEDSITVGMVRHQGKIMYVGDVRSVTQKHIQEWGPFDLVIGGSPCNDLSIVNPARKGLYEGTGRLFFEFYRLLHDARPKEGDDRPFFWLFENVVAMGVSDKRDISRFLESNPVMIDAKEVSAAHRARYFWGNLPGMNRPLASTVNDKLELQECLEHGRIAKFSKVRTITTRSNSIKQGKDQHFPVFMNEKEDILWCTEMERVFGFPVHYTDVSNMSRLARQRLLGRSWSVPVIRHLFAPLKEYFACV
Protocol: DNMT3A enzyme inhibition was adapted from the restriction-based fluorescence assay protocol described in Ceccaldi et al.. Briefly, a biotin-labelled oligonucleotide at the 5’ end is hybridized to his complementary strand labelled at the 3’ end with 6-carboxyfluorescein. The DNA duplex containing only one single CpG site overlapping with a restriction site of a methylation sensitive restriction enzyme is transferred in the wells coated with avidin. The methylation reaction is performed by adding human C-terminal DNMT3A at the final concentration of 4 ng/µL in a total volume of 50 µL in the presence of the inhibitors at various concentrations and the co-substrate SAM at the final concentration of 20 µM. The plate was incubated for 1 h at 37 °C, washed, and added with the methylation sensitive restriction enzyme HpyCH4IV, incubated for 1 h further at 37 °C, washed and the fluorescence measured with a PerkinElmer Envision Multilabel Plate Reader. The data are expressed as percentage of inhibition vs. log concentration (M). Data are normalized referring to the “restriction control” (wells coated with labelled duplex not treated nor exposed to DNMT3A, but only cleaved by HpyCH4IV) as the maximum of inhibition (100%) and to the “DMSO control” (wells coated with labelled duplex but treated just with 0.1% DMSO exposed to DNMT3A and then to HpyCH4IV) as the minimum of inhibition (0%; total methylation).

HL60 APL cells [4] = experiment: Antiproliferative activity, MTT; type: cell-based; conditions: Homo sapiens, HL-60, 48 h treatment, read-out: Antiproliferative Activity (IC50 ± SD) HL60
Protocol: (§1) U937 histiocytic lymphoma, HL60 acute promyelocytic leukemia, H1299 lung adenocarcinoma, MCF7 breast carcinoma, HT1080 fibrosarcoma, M14 melanoma, HeLa epithelial cervix carcinoma and peripheral blood B lymphocyte AHH1 human cell lines were obtained from the Deutsche Sammlung für Mikroorganismen and Zellkulturen (DSZM, Braunschweig, Germany) and were maintained in RPMI 1640 medium contained 10% fetal bovine serum (FBS), 2 mM L-glutamine, and antibiotics in a humidified atmosphere with 5% CO2 at 37 °C. HCT116 (ATCC, VA, USA) cells were propagated in Dulbecco’s modified Eagle medium (DMEM) (Euroclone, Milan, Italy) with 10% fetal bovine serum (FBS; Euroclone, Milan, Italy), 2 mM L-glutamine (Euroclone, Milan, Italy), and antibiotics (100 U/mL penicillin, 100 µg/mL streptomycin) (Euroclone, Milan, Italy). The experiments were performed with early (3–20) cell passages. Cell lines were treated with compounds at the indicated concentrations in the exponential growth phase.
(§2) Then, increasing concentrations of different compounds (ranging from 0.01 to 100 μM) were added, and cell proliferation was evaluated by a MTT assay after 48 h. Cells exposed to DMSO were used as control. The effect of compounds was evaluated using the CellTiter-Glo luminescent cell viability assay (Promega, Madison, WI, USA) according to the manufacturer’s instructions. For HCT116, 5 × 10^4 cells/well were plated in 24-well plate and treated, in duplicate, with compounds at several concentrations for 24 and 48 h of induction. After treatments, MTT solution was added for 3 h at 0.5 mg/mL, the obtained crystals were dissolved in DMSO (Sigma-Aldrich, Milan, Italy), and the absorbance was read at a wavelength of 570 nm with reader TECAN M-200. All the experiments were performed in triplicate and repeated at least three times.
(§3) IC50 values of compounds against cellular viability were determined by using nonlinear regression fitting curves with GraphPad Prism 8. The t-test used for statistical analyses was performed with GraphPad Prism 8. All the tests were one-tailed and a p-value < 0.05 was considered statistically significant.

U937 AML cells [5] = experiment: Antiproliferative activity, MTT; type: cell-based; conditions: Homo sapiens, U-937, 48 h treatment, read-out: Antiproliferative Activity (IC50 ± SD) U937
Protocol: as §1, §2, §3

[6] = test system: H1299 human non-small cell lung carcinoma; experiment: Antiproliferative activity, MTT; type: cell-based; conditions: 48 h treatment, read-out: Antiproliferative Activity (IC50 ± SD) H1299
Protocol: as §1, §2, §3

[7] = test system: HCT116 human colorectal carcinoma; experiment: Antiproliferative activity, MTT; type: cell-based; conditions: HCT-116, 48 h treatment, read-out: Antiproliferative Activity (IC50 ± SD) HCT116
Protocol: as §1, §2, §3

[8] = test system: HT1080 human fibrosarcoma; experiment: Antiproliferative activity, MTT; type: cell-based; conditions: HT-1080, 48 h treatment, read-out: Antiproliferative Activity (IC50 ± SD) HT1080
Protocol: as §1, §2, §3

[9] = test system: HeLa epithelial cervix carcinoma; experiment: Antiproliferative activity, MTT; type: cell-based; conditions: Homo sapiens, 48 h treatment, read-out: Antiproliferative Activity (IC50 ± SD) HeLa
Protocol: as §1, §2, §3

M14 human melanoma = experiment: Antiproliferative activity, MTT; type: cell-based; conditions: 48 h treatment, read-out: Antiproliferative Activity (IC50 ± SD) M14
Protocol: as §1, §2, §3

F21T G-quadruplex DNA = experiment: FRET melting assay, G-quadruplex DNA; type: binding
Protocol: (§4) Experimental procedure for Fluorescence Resonance Energy Transfer (FRET) melting assay Oligonucleotides labeled at 5’ with FAM (6-carboxyfluorescein) as donor fluorophore and TAMRA (6 - carboxytetramethylrhodamine) at 3’ as the acceptor fluorophore were purchased from STAB VIDA (Portugal). Each oligonucleotide was initial ly diluted to 100 µM in water (Molecular Biology Reagent, Sigma). Stock solutions of 20 µM and subsequent dilutions were made with FRET buffer (60 mM KCl, potassium cacodylate, pH 7.4). Tagged oligonucleotides at 0.4 µM were annealed by heating at 90 -95 °C for 10 min, followed by slow cooling to room temperature. St ock solutions of compounds (1 mM) were prepared in 10% DMSO. Subsequent dilutions were performed using FRET buffer. Annealed DNA (50 µL) and test compound solutions (50 µL) were distributed across 96-well RT-PCR plates (PCR-96-FLT-C, Axygen, Inc). Fluorescence readings (performed in a 7300 RT -PCR equipment from Applied Biosystems) were taken at intervals of 0.5 °C in the range 31 –95 °C, with the temperature being maintained for 30 seconds prior to each reading. Experiments were performed in triplicate. Fina l analysis of the data was carried out with GraphPad Prism v.5.0 (GraphPad Software Inc., La Jolla, CA, USA).
(§5) The advanced curve-fitting function in GraphPad Prism (nonlinear regression fit) was used for calculation of ΔTm values. Only results with fitting r2 values > 0.75 (std error < 0.25) were considered.
(§6) Table S2. Synthetic oligonucleotides used in FRET experiments.

KRAS21R G-quadruplex DNA = experiment: FRET melting assay, G-quadruplex DNA; type: binding
Protocol: as §4, §5, §6

[10] = test system: methylated UCHL1 promoter (pUCHL1) in HCT116 cells; experiment: UCHL1 promoter demethylation assay (EGFP induction, FACS); type: cell-based, human; conditions: HCT116, 0.5 µM, five days
Protocol: The assay was performed as described in [29]. Briefly, human colon cancer HCT116 (ATCC, VA, USA) cells were grown in Dulbecco’s Modified Eagle Medium (DMEM; Euroclone, Milan, Italy) supplemented with 10% fetal bovine serum (FBS; Euroclone, Milan, Italy), 2 mM L-glutamine (Euroclone), and antibiotics (100 U/mL penicillin, 100 µg/mL streptomycin) (Euroclone). The pUMLIEP vector (composed by MetLuc-IRES-EGFP construct upon the control of the ubiquitin carboxyl-terminal hydrolase L1 (UCHL1)) was linearized and methylated by with ClaI and SssI-methylase enzymes (New England Biolabs, Milan, Italy). After, methylated pUMLIEP was transfected into HCT116 cells following the protocol described in [30]. […] On day 5, cells were observed under by a fluorescent microscope (Cytation 5 Cell Imaging Multi-Mode Reader (BioTeK Milan, Italy) and BD Accuri flow cytometers. Nuclei were counterstained with DAPI (10 µg/mL, Invitrogen, Tournai, Belgium).

EC50 (human DNMT1 (hDNMT1)) [µM] | EC50 [3] [µM] | IC50 (HL60 APL cells [4]) [µM] | IC50 (U937 AML cells [5]) [µM] | Structure (SMILES) | IC50 (U937 AML cells [1]; reference compounds) [µM] | IC50 (HL60 APL cells [2]; reference compounds) [µM] | IC50 [6] [µM] | IC50 ([6]; Homo sapiens, NCI-H1299, 48 h) [µM] | IC50 [7] [µM] | IC50 [8] [µM] | IC50 [9] [µM] | IC50 (M14 human melanoma) [µM] | F21T ∆Tm (F21T G-quadruplex DNA; 5 µM) | F21T ∆Tm (F21T G-quadruplex DNA; 10 µM) | KRAS ∆Tm (KRAS21R G-quadruplex DNA; 5 µM) | KRAS ∆Tm (KRAS21R G-quadruplex DNA; 10 µM) | pUCHL1 demethylation, EGFP-positive cells (FACS R1) [10] [%] | IC50 (U937 AML cells [1]; reference compound) [µM] | IC50 (HL60 APL cells [2]; reference compound) [µM]
– | – | – | – | Cc1cc(Nc2ccc(NC(=O)c3ccc(Nc4cc(C)nc(N)n4)cc3)cc2)nc(N)n1 [Compound 3] | 60 ± 8.2 | 119 ± 12.9 | – | – | – | – | – | – | – | – | – | – | – | – | –
35 ± 7 | 31 ± 6 | 36 ± 4 | 25.8 ± 3.2 | Cc1cc(Nc2cccc(CNC(=O)c3cccc(Nc4ccnc5ccccc45)c3)c2)nc(N)n1 [Compound 1c] | – | – | – | – | – | – | – | – | – | – | – | – | – | – | –
– | – | – | – | O=C(Nc1ccc(Nc2ccnc3ccccc23)cc1)c1ccc(Nc2ccnc3ccccc23)cc1 [Compound 2, reference compound] | 6.6 ± 0.9 | 65 ± 8.1 | 11.4 ± 1.8 | 11 | 13.3 ± 2.1 | 17 ± 2.1 | 52 ± 5.7 | 80 ± 9.1 | 0.6 ºC | 6.2 ºC | 1.0 ºC | 9.6 ºC | – | – | –
– | – | – | – | Cc1cc(Nc2ccc(NC(=O)c3ccc(Nc4ccnc5ccccc45)cc3)cc2)nc(N)n1 [SGI-1027, reference compound] | 0.7 ± 0.08 | 0.7 ± 0.16 | – | – | – | – | – | – | 1.9 ºC | 7.2 ºC | 6.7 ºC | 8.7 ºC | 32.9 | – | –
– | – | – | – | O=C(Nc1ccc(NC(=O)c2ccc(Nc3ccnc4ccccc34)cc2)cc1)OCc1ccccc1 [Compound 4, reference compound] | – | – | – | 5.9 ± 0.8 | 8.6 ± 1 | 1.7 ± 0.2 | 3.2 ± 0.5 | 2.9 ± 0.4 | 2.7 ºC | 6.9 ºC | 1 ºC | 10.4 ºC | – | 2.3 ± 0.4 | 8.3 ± 1
